From US20240208992A1, “MACROCYCLES AS CFTR MODULATORS” (Idorsia Pharmaceuticals Ltd, priority 2021, published 2024)

Molecular target: human F508del-CFTR (Homo sapiens, UniProt P13569, DEL508-508)
Test: F508del-CFTR cell surface expression (corrector activity), DiscoveRx ß-galactosidase complementation chemiluminescence assay in recombinant U2OS cell line;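 also: U2OS cells co-expressing ProLink-tagged F508del-CFTR and a membrane-anchored enzyme acceptor, where more surface CFTR restores β-galactosidase activity measured by chemiluminescence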
Conditions: for EC50: EC50, F508del-CFTR cell surface expression, geomean values; for Emax: U2OS, arithmetic mean values
[1] = U2OS cells, 16h compound incubation
[2] = in relation to Emax of corrector lumacaftor (=100%)
[3] = U2OS cell line, 16h compound incubation
[4] = in relation to the Emax of the corrector lumacaftor (=100%), U2OS cell line, 16h compound incubation

Sequence of human F508del-CFTR (P13569 with tags, fused parts or gaps DEL508-508): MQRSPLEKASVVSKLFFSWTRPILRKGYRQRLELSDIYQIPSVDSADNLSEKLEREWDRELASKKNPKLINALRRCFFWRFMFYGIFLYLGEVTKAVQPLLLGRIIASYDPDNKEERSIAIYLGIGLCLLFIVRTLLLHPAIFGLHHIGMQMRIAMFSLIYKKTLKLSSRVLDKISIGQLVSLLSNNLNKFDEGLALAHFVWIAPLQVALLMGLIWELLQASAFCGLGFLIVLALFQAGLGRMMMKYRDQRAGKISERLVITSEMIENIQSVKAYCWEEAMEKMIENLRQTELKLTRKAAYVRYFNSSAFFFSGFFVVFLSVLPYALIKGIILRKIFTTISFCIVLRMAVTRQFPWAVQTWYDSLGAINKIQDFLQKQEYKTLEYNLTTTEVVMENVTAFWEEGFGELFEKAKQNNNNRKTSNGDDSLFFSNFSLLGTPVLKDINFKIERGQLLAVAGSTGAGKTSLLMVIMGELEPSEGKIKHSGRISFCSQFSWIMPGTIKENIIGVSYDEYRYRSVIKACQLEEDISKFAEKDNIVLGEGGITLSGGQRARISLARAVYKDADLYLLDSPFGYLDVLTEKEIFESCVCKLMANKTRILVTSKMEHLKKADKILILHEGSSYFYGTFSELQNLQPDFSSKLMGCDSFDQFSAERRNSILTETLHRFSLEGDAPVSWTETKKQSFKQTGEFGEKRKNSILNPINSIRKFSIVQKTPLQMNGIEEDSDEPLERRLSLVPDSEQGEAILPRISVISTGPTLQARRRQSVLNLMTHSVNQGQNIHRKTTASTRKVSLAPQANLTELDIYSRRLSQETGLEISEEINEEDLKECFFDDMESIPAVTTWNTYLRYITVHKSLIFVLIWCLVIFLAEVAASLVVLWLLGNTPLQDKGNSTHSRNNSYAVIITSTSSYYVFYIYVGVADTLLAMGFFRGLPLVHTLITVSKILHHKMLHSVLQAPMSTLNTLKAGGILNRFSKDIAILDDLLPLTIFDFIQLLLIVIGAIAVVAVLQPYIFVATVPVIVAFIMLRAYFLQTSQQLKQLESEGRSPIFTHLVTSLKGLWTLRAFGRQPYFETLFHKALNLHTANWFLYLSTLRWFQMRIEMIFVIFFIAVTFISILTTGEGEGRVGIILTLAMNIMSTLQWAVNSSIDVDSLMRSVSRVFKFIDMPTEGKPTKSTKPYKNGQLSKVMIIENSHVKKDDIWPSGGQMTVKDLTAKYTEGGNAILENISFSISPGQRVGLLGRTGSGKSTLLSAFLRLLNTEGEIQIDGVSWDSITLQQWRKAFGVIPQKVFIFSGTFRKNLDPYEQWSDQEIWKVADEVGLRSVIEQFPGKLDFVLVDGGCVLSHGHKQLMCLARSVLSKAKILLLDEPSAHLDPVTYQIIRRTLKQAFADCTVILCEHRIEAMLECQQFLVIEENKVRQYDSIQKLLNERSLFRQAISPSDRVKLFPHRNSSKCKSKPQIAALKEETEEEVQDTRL
Experimental: The method measures the effect of over-night compound incubation on F508del-CFTR cell surface expression in a recombinant U2OS cell line (DiscoveRx, #93-0987C3). This cell line is engineered to co-express (i) human F508del-CFTR tagged with a Prolink (PK=short ß-galactosidase fragment) and (ii) the remainder of the ß-galactosidase enzyme (Enzyme Acceptor; EA) localized to the plasma membrane. Incubation with compounds that increase PK-tagged F508del-CFTR at the plasma membrane will lead to complementation of the EA fragment to form a functional ß-galactosidase enzyme which is quantified by a chemiluminescence reaction.
The cells are incubated for 5h in the incubator before the addition of 5 μl/well of compound dilution series (5× working stocks in full medium). […] The cells are co-incubated with the compounds for 16h in the incubator at 37° C., 5% CO2. The next day, the cell plates are incubated for 2h at RT in the dark. […] Concentration-response curves are generated using compound-intrinsic maximal efficacy as upper plateau, and from these CRCs compound-intrinsic EC50 values are determined.
The calculated EC50 values may fluctuate depending on the daily assay performance. […] EC50 values from several measurements are given as geomean values. The calculated Emax values may fluctuate depending on the daily assay performance. […] Emax values from several measurements are given as arithmetic mean values.

Compound | EC50 [1] [nM] | Emax [2] [%] | EC50 [3] [nM] | Emax [4] [%]
COc1cccc(CCNC(=O)[C@@H]2CC(=O)N(C)[C@@H](CC(C)C)C(=O)N3CCN(S(=O)(=O)c4cncc(OC)c4)C[C@@H]3C(=O)N[C@H](Cc3ccccc3)COc3ccc4ccccc4c3C(=O)N2)c1 [Example 744, (4aR,7R,18S,22S)-7-benzyl-22-isobutyl-N-(3-methoxyphenethyl)-3-((5-methoxypyridin-3-yl)sulfonyl)-21-methyl-5,16,20,23-tetraoxo-2,3,4,4a,5,6,7,8,16,17,18,19,20,21,22,23-hexadecahydro-1H-naphtho[1,2-p]pyrazino[2,1-f][1]oxa[4,7,10,14]tetraazacycloheptadecine-18-carboxamide] | 178 | 239 | – | –
COc1nccc2c1C(=O)N[C@H](C(=O)NCCc1cc(C3CC3)no1)CC(=O)N(C)[C@@H](CC(C)C)C(=O)N1CCC3(CC3)C[C@@H]1C(=O)N[C@H](Cc1ccccc1)CO2 [Example 668, (7′S,11′S,17a′R,20′R)-20′-benzyl-N-(2-(3-cyclopropylisoxazol-5-yl)ethyl)-11′-isobutyl-4′-methoxy-10′-methyl-5′,9′,12′,18′-tetraoxo-5′,6′,7′,8′,9′,10′,11′,12′,14′,15′,17′,17a′,18′,19′,20′,21′-hexadecahydrospiro[cyclopropane-1,16′-dipyrido[2,1-f:3′,4′-p][1]oxa[4,7,10,14]tetraazacycloheptadecine]-7′-carboxamide] | 160 | 330 | – | –
CC(C)C[C@H]1C(=O)N(CCc2ccccc2)CC(=O)N[C@H](Cc2ccccc2)COc2cc3c(cc2C(=O)N[C@H](C(=O)NCCc2ccc4c(c2)OCO4)CC(=O)N1C)OCO3 (racemic) [Example 5, (7R,13S,17RS)-N-(2-(benzo[d][1,3]dioxol-5-yl)ethyl)-7-benzyl-13-isobutyl-14-methyl-9,12,15,19-tetraoxo-11-phenethyl-6,7,8,9,10,11,12,13,14,15,16,17,18,19-tetradecahydro-[1,3]dioxolo[4′,5′:4,5]benzo[1,2-p][1]oxa[4,7,10,14]tetraazacycloheptadecine-17-carboxamide] | – | – | 369 | 109
Cc1cc(CCNC(=O)[C@@H]2CC(=O)N(C)[C@@H](CC(C)C)C(=O)N(CCC3CCCCC3)CC(=O)N[C@H](Cc3ccccc3)COc3cnc4ccccc4c3C(=O)N2)on1 [Example 344, (3S,7S,13R)-13-benzyl-9-(2-cyclohexylethyl)-7-isobutyl-6-methyl-N-(2-(3-methylisoxazol-5-yl)ethyl)-1,5,8,11-tetraoxo-1,2,3,4,5,6,7,8,9,10,11,12,13,14-tetradecahydro-[1]oxa[4,7,10,14]tetraazacycloheptadecino[17,16-c]quinoline-3-carboxamide] | – | – | 126 | 284
Cc1cc(CCNC(=O)[C@@H]2CC(=O)N(C)[C@@H](CC(C)C)C(=O)N(C)C3(CC(F)(F)C3)C(=O)N[C@H](Cc3ccccc3)COc3cnc4ccccc4c3C(=O)N2)on1 [Example 711, (3′S,7′S,13′R)-13′-benzyl-3,3-difluoro-7′-isobutyl-6′,9′-dimethyl-N-(2-(3-methylisoxazol-5-yl)ethyl)-1′,5′,8′,11′-tetraoxo-2′,3′,4′,5′,6′,7′,8′,9′,11′,12′,13′,14′-dodecahydro-1′H-spiro[cyclobutane-1,10′-[1]oxa[4,7,10,14]tetraazacycloheptadecino[17,16-c]quinoline]-3′-carboxamide] | 778 | 301 | – | –
CC(C)C[C@H]1C(=O)N2CCCC[C@@H]2C(=O)N[C@H](Cc2ccccc2)COc2cnc3ccc(F)cc3c2C(=O)N[C@H](C(=O)NCCc2noc(C(C)C)n2)CC(=O)N1C [Example 171, (9S,13S,19aR,22R)-22-benzyl-5-fluoro-13-isobutyl-N-(2-(5-isopropyl-1,2,4-oxadiazol-3-yl)ethyl)-12-methyl-7,11,14,20-tetraoxo-7,8,9,10,11,12,13,14,17,18,19,19a,20,21,22,23-hexadecahydro-16H-pyrido[2′,1′:6,7][1]oxa[4,7,10,14]tetraazacycloheptadecino[17,16-c]quinoline-9-carboxamide] | – | – | 144 | 301
COc1cccc(CCNC(=O)[C@@H]2CC(=O)N(C)[C@@H](CC(C)C)C(=O)N(C)C3(CC3)C(=O)N[C@H](Cc3ccccc3)COc3ccnc(OC)c3C(=O)N2)c1 [Example 438, (3′R,9′S,13′S)-3′-benzyl-9′-isobutyl-16′-methoxy-N-(3-methoxyphenethyl)-7′,10′-dimethyl-5′,8′,11′,15′-tetraoxo-2′,3′,4′,5′,8′,9′,10′,11′,12′,13′,14′,15′-dodecahydro-7′H-spiro[cyclopropane-1,6′-pyrido[3,4-p][1]oxa[4,7,10,14]tetraazacycloheptadecine]-13′-carboxamide] | 474 | 422 | – | –
COc1cccc(CCNC(=O)[C@@H]2CC(=O)N(C)[C@@H](CC(C)C)C(=O)N3CCCC[C@@H]3C(=O)N[C@H](Cc3ccccc3)COc3cc(OC)cc(OC)c3C(=O)N2)c1 [Example 602, (7S,11S,20R,22aR)-20-benzyl-7-isobutyl-14,16-dimethoxy-N-(3-methoxyphenethyl)-8-methyl-6,9,13,22-tetraoxo-1,3,4,6,7,8,9,10,11,12,13,19,20,21,22,22a-hexadecahydro-2H-benzo[p]pyrido[2,1-f][1]oxa[4,7,10,14]tetraazacycloheptadecine-11-carboxamide] | 286 | 299 | – | –
CC(C)C[C@H]1C(=O)N(C)C2(CC2)C(=O)N[C@H](Cc2ccccc2)COc2cnc3ccc(F)cc3c2C(=O)N[C@H](C(=O)NCCc2ccc(-n3nccn3)cc2)CC(=O)N1C [Example 135, (3′S,7′S,13′R)-N-(4-(2H-1,2,3-triazol-2-yl)phenethyl)-13′-benzyl-20′-fluoro-7′-isobutyl-6′,9′-dimethyl-1′,5′,8′,11′-tetraoxo-2′,3′,4′,5′,6′,7′,8′,9′,11′,12′,13′,14′-dodecahydro-1′H-spiro[cyclopropane-1,10′-[1]oxa[4,7,10,14]tetraazacycloheptadecino[17,16-c]quinoline]-3′-carboxamide] | – | – | 177 | 255
COc1cccc2c1C(=O)N[C@H](C(=O)NCCc1ccco1)CC(=O)N(C)[C@@H](CC(C)C)C(=O)N(CCC1CCCCC1)CC(=O)N[C@H](Cc1ccccc1)CO2 [Example 208, (3R,9S,13S)-3-benzyl-7-(2-cyclohexylethyl)-N-(2-(furan-2-yl)ethyl)-9-isobutyl-16-methoxy-10-methyl-5,8,11,15-tetraoxo-2,3,4,5,6,7,8,9,10,11,12,13,14,15-tetradecahydrobenzo[p][1]oxa[4,7,10,14]tetraazacycloheptadecine-13-carboxamide] | – | – | 277 | 188
COc1cc(OC)c2c(c1)OC[C@@H](Cc1ccccc1)NC(=O)CN(CCC1CCCCC1)C(=O)[C@H](CC(C)C)N(C)C(=O)C[C@@H](C(=O)NCCc1ccc3c(c1)OCO3)NC2=O [Example 255, (3R,9S,13S)-N-(2-(benzo[d][1,3]dioxol-5-yl)ethyl)-3-benzyl-7-(2-cyclohexylethyl)-9-isobutyl-16,18-dimethoxy-10-methyl-5,8,11,15-tetraoxo-2,3,4,5,6,7,8,9,10,11,12,13,14,15-tetradecahydrobenzo[p][1]oxa[4,7,10,14]tetraazacycloheptadecine-13-carboxamide] | – | – | 183 | 299
COc1cc(CCNC(=O)[C@@H]2CC(=O)N(C)[C@@H](CC(C)C)C(=O)N(C)[C@H](Cc3nc(-c4ccc(F)cn4)no3)C(=O)N[C@H](Cc3ccccc3)COc3ccc4ncc(F)cc4c3C(=O)N2)on1 [Example 795, (3S,7S,10R,13R)-13-benzyl-20-fluoro-10-((3-(5-fluoropyridin-2-yl)-1,2,4-oxadiazol-5-yl)methyl)-7-isobutyl-N-(2-(3-methoxyisoxazol-5-yl)ethyl)-6,9-dimethyl-1,5,8,11-tetraoxo-1,2,3,4,5,6,7,8,9,10,11,12,13,14-tetradecahydro-[1]oxa[4,7,10,14]tetraazacycloheptadecino[16,17-f]quinoline-3-carboxamide] | 141 | 384 | – | –
Cc1cc(CCNC(=O)[C@@H]2CC(=O)N(C)[C@@H](CC(C)C)C(=O)N(C[C@H]3CCCC(C)(C)O3)CC(=O)N[C@H](Cc3ccccc3)COc3cnc4ccccc4c3C(=O)N2)on1 [Example 706, (3S,7S,13R)-13-benzyl-9-(((R)-6,6-dimethyltetrahydro-2H-pyran-2-yl)methyl)-7-isobutyl-6-methyl-N-(2-(3-methylisoxazol-5-yl)ethyl)-1,5,8,11-tetraoxo-1,2,3,4,5,6,7,8,9,10,11,12,13,14-tetradecahydro-[1]oxa[4,7,10,14]tetraazacycloheptadecino[17,16-c]quinoline-3-carboxamide] | 707 | 162 | – | –
CN1C(=O)C[C@@H](C(=O)NCCc2ccc3c(c2)OCO3)NC(=O)c2c(ccc3ccccc23)OC[C@@H](Cc2ccccc2)NC(=O)CN(C[C@@H]2CCCCO2)C(=O)[C@@H]1CC1CCCCC1 (racemic) [Example 285, (3RS,7S,13R)-N-(2-(benzo[d][1,3]dioxol-5-yl)ethyl)-13-benzyl-7-(cyclohexylmethyl)-6-methyl-1,5,8,11-tetraoxo-9-(((S)-tetrahydro-2H-pyran-2-yl)methyl)-1,2,3,4,5,6,7,8,9,10,11,12,13,14-tetradecahydronaphtho[1,2-p][1]oxa[4,7,10,14]tetraazacycloheptadecine-3-carboxamide] | – | – | – | 118
CN1C(=O)C[C@@H](C(=O)NCCc2ccc3c(c2)OCO3)NC(=O)c2c(ccc3ccccc23)OC[C@@H](Cc2ccccc2)NC(=O)CN(C[C@H]2CCCCO2)C(=O)[C@@H]1CC1CCCC1 (racemic) [Example 286, (3RS,7S,13R)-N-(2-(benzo[d][1,3]dioxol-5-yl)ethyl)-13-benzyl-7-(cyclopentylmethyl)-6-methyl-1,5,8,11-tetraoxo-9-(((R)-tetrahydro-2H-pyran-2-yl)methyl)-1,2,3,4,5,6,7,8,9,10,11,12,13,14-tetradecahydronaphtho[1,2-p][1]oxa[4,7,10,14]tetraazacycloheptadecine-3-carboxamide] | – | – | – | 144
